IC50 data for 33 molecules are collected here from patent US9656959B2, “Substituted pyridines as sodium channel blockers” (Purdue Pharma L.P., priority 2010, dated 2017).

In one assay the target is human Nav1.7 (Homo sapiens (Human), UniProt Q15858). As to the kind of experiment: FLIPR or FLIPR TETRA sodium dye assay with KCl and test article pre-incubation. Type of assay: cell-based. Particulars: read-out: Nav1.7 Activity (μM) FLIPR assay IC50 (μM) ± SEM.
Chain of human Nav1.7 (Q15858 with tags, fused parts or gaps limits assumed): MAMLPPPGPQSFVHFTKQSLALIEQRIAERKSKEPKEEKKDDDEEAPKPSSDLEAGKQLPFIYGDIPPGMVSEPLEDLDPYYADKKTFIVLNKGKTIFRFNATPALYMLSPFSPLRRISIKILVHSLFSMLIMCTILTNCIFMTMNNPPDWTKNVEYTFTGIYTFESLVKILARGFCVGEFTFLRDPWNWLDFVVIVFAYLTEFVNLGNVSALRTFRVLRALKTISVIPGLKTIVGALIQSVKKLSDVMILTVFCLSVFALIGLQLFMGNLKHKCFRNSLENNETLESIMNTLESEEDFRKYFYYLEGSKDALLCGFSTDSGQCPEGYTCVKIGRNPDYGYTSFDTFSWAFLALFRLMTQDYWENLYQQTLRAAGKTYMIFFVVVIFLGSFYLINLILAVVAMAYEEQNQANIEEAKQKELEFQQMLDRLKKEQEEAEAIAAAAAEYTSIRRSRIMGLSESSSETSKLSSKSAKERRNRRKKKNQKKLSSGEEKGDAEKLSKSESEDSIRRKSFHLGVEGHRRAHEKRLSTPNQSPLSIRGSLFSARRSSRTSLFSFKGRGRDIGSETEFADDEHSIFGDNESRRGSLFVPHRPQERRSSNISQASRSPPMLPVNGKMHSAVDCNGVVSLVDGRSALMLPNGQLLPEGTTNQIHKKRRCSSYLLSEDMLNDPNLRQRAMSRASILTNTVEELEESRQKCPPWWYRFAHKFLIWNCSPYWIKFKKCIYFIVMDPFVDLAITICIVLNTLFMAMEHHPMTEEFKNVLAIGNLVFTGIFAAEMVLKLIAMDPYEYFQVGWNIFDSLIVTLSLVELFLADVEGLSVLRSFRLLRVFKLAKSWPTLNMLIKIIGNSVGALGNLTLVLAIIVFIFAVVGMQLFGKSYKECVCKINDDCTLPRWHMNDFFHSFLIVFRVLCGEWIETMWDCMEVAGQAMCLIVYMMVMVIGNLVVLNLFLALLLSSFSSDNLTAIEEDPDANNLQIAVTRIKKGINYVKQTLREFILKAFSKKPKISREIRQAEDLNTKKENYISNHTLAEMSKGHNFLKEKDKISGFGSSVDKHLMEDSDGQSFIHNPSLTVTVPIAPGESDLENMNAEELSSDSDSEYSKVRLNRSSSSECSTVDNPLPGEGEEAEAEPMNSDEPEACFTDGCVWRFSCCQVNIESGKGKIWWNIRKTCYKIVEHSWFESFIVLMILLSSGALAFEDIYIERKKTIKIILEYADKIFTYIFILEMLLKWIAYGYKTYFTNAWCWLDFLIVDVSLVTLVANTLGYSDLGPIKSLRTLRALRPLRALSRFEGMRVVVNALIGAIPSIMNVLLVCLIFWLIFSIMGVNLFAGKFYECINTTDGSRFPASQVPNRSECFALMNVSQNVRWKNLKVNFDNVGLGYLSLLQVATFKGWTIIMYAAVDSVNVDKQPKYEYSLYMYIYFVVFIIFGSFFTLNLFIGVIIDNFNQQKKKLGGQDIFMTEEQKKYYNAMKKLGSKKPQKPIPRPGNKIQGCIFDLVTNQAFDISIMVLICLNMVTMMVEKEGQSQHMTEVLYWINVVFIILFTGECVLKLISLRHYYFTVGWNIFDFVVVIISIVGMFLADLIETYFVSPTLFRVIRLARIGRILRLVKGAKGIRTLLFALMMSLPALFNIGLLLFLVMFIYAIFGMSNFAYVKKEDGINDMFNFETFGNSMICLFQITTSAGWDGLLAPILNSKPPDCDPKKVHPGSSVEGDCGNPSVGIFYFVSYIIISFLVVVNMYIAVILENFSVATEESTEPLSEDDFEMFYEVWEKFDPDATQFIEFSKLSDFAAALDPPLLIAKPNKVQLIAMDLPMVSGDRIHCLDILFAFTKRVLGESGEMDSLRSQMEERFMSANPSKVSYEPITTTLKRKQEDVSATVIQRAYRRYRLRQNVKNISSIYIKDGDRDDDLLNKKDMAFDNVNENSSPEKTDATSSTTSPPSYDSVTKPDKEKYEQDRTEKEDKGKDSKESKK
For orientation: IC50 means the midpoint of a concentration-inhibition curve. For `CS(=O)(=O)Nc1cc(Cl)cc(-c2ccc(Oc3ccc(F)cc3)cc2)n1` [Compound 15, N-(4-chloro-6-(4-(4-fluorophenoxy)phenyl)pyridin-2-yl)methanesulfonamide], the concentration for half-maximal inhibition (IC50) was determined as 0.26 ± 0.07 µM. On the same count and under the same terms, under `Cn1cnc(S(=O)(=O)Nc2cccc(-c3ccc(Oc4ccc(F)cc4)cc3)n2)c1` [Compound 29, N-(6-(4-(4-fluorophenoxy)phenyl)pyridin-2-yl)-1-methyl-1H-imidazole-4-sulfonamide] stands 0.32 ± 0.05 µM; under `CC(C)C[C@H](NC(=O)c1cccnc1)C(=O)Nc1cccc(-c2ccc(Oc3ccc(F)cc3)cc2)n1` [Compound 10, (S)-N-(1-((6-(4-(4-fluorophenoxy)phenyl)pyridin-2-yl)amino)-4-methyl-1-oxopentan-2-yl)nicotinamide], 0.091 ± 0.03 µM.

Regarding `Cn1cnc(C[C@H](NC(=O)CC(F)(F)F)C(=O)Nc2cccc(-c3ccc(Oc4ccc(F)cc4)cc3)n2)c1` [Compound 86, (S)-3,3,3-trifluoro-N-(1-((6-(4-(4-fluorophenoxy)phenyl)pyridin-2-yl)amino)-3-(1-methyl-1H-imidazol-4-yl)-1-oxopropan-2-yl)propanamide], the IC50 amounted to 0.084 ± 0.007 µM. On the same count and under the same terms, under `CC(=O)N[C@@H](Cc1cn(C)cn1)C(=O)Nc1cc(-c2ccc(Oc3ccc(F)cc3)cc2)ccn1` [Compound 84, (S)-2-acetamido-N-(4-(4-(4-fluorophenoxy)phenyl)pyridin-2-yl)-3-(1-methyl-1H-imidazol-4-yl)propanamide] stands 0.29 ± 0.025 µM; under `O=C(N[C@@H](CO)C(=O)Nc1cccc(-c2ccc(Oc3ccc(F)cc3)cc2)n1)c1ccccn1` [Compound 54, Pyridine-2-carboxylic acid ((S)-1-{6-[4-(4-fluoro-phenoxy)-phenyl]-pyridin-2-ylcarbamoyl}-2-hydroxy-ethyl)-amide], 0.07 ± 0.02 µM; under `CC(C)(C)OC(=O)N[C@@H](CC(=O)Nc1cccc(-c2ccc(Oc3ccc(F)cc3)cc2)n1)C(N)=O` [Compound 40, (S)-tert-butyl (1-amino-4-((6-(4-(4-fluorophenoxy)phenyl)pyridin-2-yl)amino)-1,4-dioxobutan-2-yl)carbamate], 0.13 ± 0.03 µM. Still for that read-out and setting: the same measure for `O=C1NCCN1CCNc1cc(Cl)cc(-c2ccc(Oc3ccc(F)cc3)cc2)n1` [Compound 64, 1-(2-((4-chloro-6-(4-(4-fluorophenoxy)phenyl)pyridin-2-yl)amino)ethyl)imidazolidin-2-one]: 0.12 ± 0.01 µM; for `CC(C)(O)C(=O)N[C@@H](Cc1c[nH]cn1)C(=O)Nc1cccc(-c2ccc(Oc3ccc(F)cc3)cc2)n1` [Compound 37, (S)-N-(6-(4-(4-fluorophenoxy)phenyl)pyridin-2-yl)-2-(2-hydroxy-2-methylpropanamido)-3-(1H-imidazol-4-yl)propanamide]: 0.12 ± 0.03 µM. Take `CS(=O)(=O)Nc1cccc(-c2ccc(Oc3ccc(F)cc3)cc2)n1` [Compound 27, N-(6-(4-(4-fluorophenoxy)phenyl)pyridin-2-yl)methanesulfonamide]: the IC50 turned out to be 0.34 ± 0.05 µM. Same read-out and setting: the same measure for `CC(C)C[C@H](NC(=O)NC(C)C)C(=O)Nc1cccc(-c2ccc(Oc3ccc(F)cc3)cc2)n1` [Compound 11, (S)-N-(6-(4-(4-fluorophenoxy)phenyl)pyridin-2-yl)-2-(3-isopropylureido)-4-methylpentanamide]: 0.086 ± 0.02 µM. Same read-out and setting: under `O=C(Nc1cccc(-c2ccc(Oc3ccc(C(F)(F)F)cn3)cc2)n1)C(O)CO` (stereo not drawn) [Compound 96, 2,3-dihydroxy-N-(6-(4-((5-(trifluoromethyl)pyridin-2-yl)oxy)phenyl)pyridin-2-yl)propanamide] stands above 20 µM; under `Cn1cnc(C[C@H](NC(=O)C(C)(C)C)C(=O)Nc2cccc(-c3ccc(Oc4ccc(F)cc4)cc3)n2)c1` [Compound 83, (S)-N-(6-(4-(4-fluorophenoxy)phenyl)pyridin-2-yl)-3-(1-methyl-1H-imidazol-4-yl)-2-pivalamidopropanamide], 0.02 ± 0.002 µM; under `N[C@@H](Cc1c[nH]cn1)C(=O)Nc1cccc(-c2ccc(Oc3ccc(F)cc3)cc2)n1` [Compound 31, (S)-2-amino-N-(6-(4-(4-fluorophenoxy)phenyl)pyridin-2-yl)-3-(1H-imidazol-4-yl)propanamide], 0.18 ± 0.02 µM. The same measure, in the same setting: the same measure for `NS(=O)(=O)Nc1cc(Cl)cc(-c2ccc(Oc3ccc(F)cc3)cc2)n1` [Compound 18, N-(4-chloro-6-(4-(4-fluorophenoxy)phenyl)pyridin-2-yl)sulfamide]: 1.5 ± 0.3 µM. Regarding `CS(=O)(=O)N(C[C@H](O)CO)c1cc(Cl)cc(-c2ccc(Oc3ccc(F)cc3)cc2)n1` [Compound 17, (S)-N-(4-chloro-6-(4-(4-fluorophenoxy)phenyl)pyridin-2-yl)-N-(2,3-dihydroxypropyl)methanesulfonamide], the IC50 is 0.094 ± 0.03 µM. Regarding `CC(C)(C)OC(=O)N[C@@H](CO)C(=O)Nc1cccc(-c2ccc(Oc3ccc(F)cc3)cc2)n1` [Compound 59, ((S)-1-{6-[4-(4-Fluoro-phenoxy)-phenyl]-pyridin-2-ylcarbamoyl}-2-hydroxy-ethyl)-carbamic acid tert-butyl ester], the IC50 amounted to 0.31 ± 0.07 µM.

`CC(C)C[C@H](NC(=O)CO)C(=O)Nc1cccc(-c2ccc(Oc3ccc(F)cc3)cc2)n1` [Compound 90, (S)-N-(6-(4-(4-fluorophenoxy)phenyl)pyridin-2-yl)-2-(2-hydroxyacetamido)-4-methylpentanamide]: the IC50 came to 0.07 ± 0.012 µM. Consider `Cn1cnc(C[C@H](NC(=O)Nc2cccc(-c3ccc(Oc4ccc(F)cc4)cc3)n2)C(N)=O)c1` [Compound 99, (S)-2-(3-(6-(4-(4-fluorophenoxy)phenyl)pyridin-2-yl)ureido)-3-(1-methyl-1H-imidazol-4-yl)propanamide], for which the IC50 was 0.667 ± 0.162 µM.

In the case of `CS(=O)(=O)Nc1cc([C@H](O)CO)cc(-c2ccc(Oc3ccc(F)cc3)cc2)n1` [Compound 24, (S)-N-(4-(1,2-dihydroxyethyl)-6-(4-(4-fluorophenoxy)phenyl)pyridin-2-yl)methanesulfonamide], the 50% inhibitory concentration (IC50) stood at 2.9 ± 0.8 µM. For the molecule `O=C(CO)N[C@@H](Cc1c[nH]cn1)C(=O)Nc1cccc(-c2ccc(Oc3ccc(F)cc3)cc2)n1` [Compound 36, (S)-N-(6-(4-(4-fluorophenoxy)phenyl)pyridin-2-yl)-2-(2-hydroxyacetamido)-3-(1H-imidazol-4-yl)propanamide], the 50% inhibitory concentration (IC50) was 0.14 ± 0.01 µM. With `O=C(N[C@@H](CO)C(=O)Nc1cccc(-c2ccc(Oc3ccc(F)cc3)cc2)n1)C1CC1` [Compound 55, Cyclopropanecarboxylic acid ((S)-1-{6-[4-(4-fluoro-phenoxy)-phenyl]-pyridin-2-ylcarbamoyl}-2-hydroxy-ethyl)-amide], the concentration for half-maximal inhibition (IC50) is 0.06 ± 0.006 µM. The same measure, in the same setting: the same measure for `NC(=O)N[C@@H](CO)C(=O)Nc1cccc(-c2ccc(Oc3ccc(F)cc3)cc2)n1` [Compound 61, (S)-N-{6-[4-(4-Fluoro-phenoxy)-phenyl]-pyridin-2-yl}-3-hydroxy-2-ureido-propionamide]: 0.12 ± 0.05 µM; for `COCCOCC(=O)N[C@@H](CC(C)C)C(=O)Nc1cccc(-c2ccc(Oc3ccc(F)cc3)cc2)n1` [Compound 9, (S)-N-(6-(4-(4-fluorophenoxy)phenyl)pyridin-2-yl)-2-(2-(2-methoxyethoxy)acetamido)-4-methylpentanamide]: 0.091 ± 0.02 µM; for `COCC(=O)N[C@@H](Cc1c[nH]cn1)C(=O)Nc1cccc(-c2ccc(Oc3ccc(F)cc3)cc2)n1` [Compound 35, (S)-N-(6-(4-(4-fluorophenoxy)phenyl)pyridin-2-yl)-3-(1H-imidazol-4-yl)-2-(2-methoxyacetamido)propanamide]: 0.13 ± 0.02 µM.

As for `O=S(=O)(Nc1cccc(-c2ccc(Oc3ccc(F)cc3)cc2)n1)C1CC1` [Compound 28, N-(6-(4-(4-fluorophenoxy)phenyl)pyridin-2-yl)cyclopropane Sulfonamide], the IC50 turned out to be 0.22 ± 0.07 µM. Still for that read-out and setting: the same measure for `CC(C)C[C@H](NC(=O)c1ccccn1)C(=O)Nc1cc([C@H](O)CO)cc(-c2ccc(Oc3ccc(F)cc3)cc2)n1` [Compound 45, N-((S)-1-((4-((S)-1,2-dihydroxyethyl)-6-(4-(4-fluorophenoxy)phenyl)pyridin-2-yl)amino)-4-methyl-1-oxopentan-2-yl)picolinamide]: 0.3 ± 0.07 µM; for `CC(C)C[C@H](NC(=O)C1CC1)C(=O)Nc1cc([C@H](O)CO)cc(-c2ccc(Oc3ccc(F)cc3)cc2)n1` [Compound 44, N-((S)-1-((4-((S)-1,2-dihydroxyethyl)-6-(4-(4-fluorophenoxy)phenyl)pyridin-2-yl)amino)-4-methyl-1-oxopentan-2-yl)cyclopropanecarboxamide]: 0.059 ± 0.12 µM. Consider `O=C(N[C@@H](CO)C(=O)Nc1cccc(-c2ccc(Oc3ccc(F)cc3)cc2)n1)c1ccncc1` [Compound 57, N-((S)-1-{6-[4-(4-Fluoro-phenoxy)-phenyl]-pyridin-2-ylcarbamoyl}-2-hydroxy-ethyl)-isonicotinamide], for which the IC50 was found to be 0.16 ± 0.03 µM.

Take `O=C(Nc1cccc(-c2ccc(Oc3ccc(C(F)(F)F)cc3)cc2)n1)C(O)CO` (stereo not drawn) [Compound 76, 2,3-dihydroxy-N-(6-(4-(4-(trifluoromethyl)phenoxy)phenyl)pyridin-2-yl)propanamide]: the IC50 is above 20 µM.

Staying with this assay, now noted: recombinant Nav1.7/HEK293 cells; CoroNa Green sodium dye; veratridine + scorpion venom agonists; ± SEM.
With `Cn1cnc(S(=O)(=O)Nc2cc([C@H](O)CO)cc(-c3ccc(Oc4ccc(F)cc4)cc3)n2)c1` [Compound 26, (S)-N-(4-(1,2-dihydroxyethyl)-6-(4-(4-fluorophenoxy)phenyl)pyridin-2-yl)-1-methyl-1H-imidazole-4-sulfonamide], the IC50 was above 20 µM. The same measure, in the same setting: under `Nc1nc(O)cc(C(=O)Nc2cccc(-c3ccc(Oc4ccc(F)cc4)cc3)n2)n1` [Compound 65, 2-amino-N-(6-(4-(4-fluorophenoxy)phenyl)pyridin-2-yl)-6-hydroxypyrimidine-4-carboxamide] stands above 20 µM; under `Cn1cnc2ccc(C(=O)Nc3cccc(-c4ccc(Oc5ccc(F)cc5)cc4)n3)cc21` [Compound 98, N-(6-(4-(4-fluorophenoxy)phenyl)pyridin-2-yl)-1-methyl-1H-benzo[d]imidazole-6-carboxamide], above 20 µM.
